The values that follow are results of earlier work, collected in the Kinase Knowledgebase extract (Sharma et al. 2016).

The structures appear in SMILES notation.

The target of data set [1] is CDK2 (human) (UniProt P24941). Put plainly: Enzyme Assay.
The target of data set [2] is EGFR (UniProt P00533). Put plainly: EGFr Inhibition.
EGFR, sequence (P00533 whole entry, looked up): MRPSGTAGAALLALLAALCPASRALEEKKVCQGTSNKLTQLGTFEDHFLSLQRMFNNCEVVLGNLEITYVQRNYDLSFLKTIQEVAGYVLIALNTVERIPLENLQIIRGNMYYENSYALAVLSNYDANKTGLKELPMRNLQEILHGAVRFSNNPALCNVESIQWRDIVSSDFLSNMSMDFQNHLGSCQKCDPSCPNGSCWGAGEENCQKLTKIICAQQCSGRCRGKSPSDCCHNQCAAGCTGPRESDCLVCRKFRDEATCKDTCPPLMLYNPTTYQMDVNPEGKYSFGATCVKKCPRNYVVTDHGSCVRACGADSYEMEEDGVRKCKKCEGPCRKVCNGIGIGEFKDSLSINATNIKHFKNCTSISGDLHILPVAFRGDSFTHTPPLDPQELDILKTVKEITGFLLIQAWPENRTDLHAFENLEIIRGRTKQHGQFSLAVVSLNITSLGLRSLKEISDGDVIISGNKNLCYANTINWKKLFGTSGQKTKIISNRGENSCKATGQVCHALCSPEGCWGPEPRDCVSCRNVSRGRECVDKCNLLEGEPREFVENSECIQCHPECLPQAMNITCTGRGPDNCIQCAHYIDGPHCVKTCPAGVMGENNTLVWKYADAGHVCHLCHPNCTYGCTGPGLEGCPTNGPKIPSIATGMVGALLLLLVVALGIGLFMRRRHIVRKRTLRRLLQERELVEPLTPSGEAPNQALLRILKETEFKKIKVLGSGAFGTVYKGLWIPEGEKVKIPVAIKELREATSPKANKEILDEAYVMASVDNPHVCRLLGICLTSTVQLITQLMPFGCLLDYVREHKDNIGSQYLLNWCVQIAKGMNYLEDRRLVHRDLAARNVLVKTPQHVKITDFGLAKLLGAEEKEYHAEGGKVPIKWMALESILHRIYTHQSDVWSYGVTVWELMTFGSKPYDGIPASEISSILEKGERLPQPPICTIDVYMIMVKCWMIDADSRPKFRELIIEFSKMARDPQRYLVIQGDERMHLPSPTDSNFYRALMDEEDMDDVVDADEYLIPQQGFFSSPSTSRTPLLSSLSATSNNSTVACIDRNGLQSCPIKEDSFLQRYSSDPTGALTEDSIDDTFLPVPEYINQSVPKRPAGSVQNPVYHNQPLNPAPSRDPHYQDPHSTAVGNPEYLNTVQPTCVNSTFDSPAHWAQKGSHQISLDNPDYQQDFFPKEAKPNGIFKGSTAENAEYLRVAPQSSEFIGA

Consider `O=C1Nc2ccc3ncsc3c2C1=CNc1ccc(S(=O)(=O)NCO)cc1`, for which, in data set [1], the IC50 is 4.68 nM.
Turning to `Cn1c(=O)c(-c2c(Cl)cccc2Cl)cc2cnc(NCc3ccccc3)nc21`, in data set [2], the IC50 is 75000 nM.
Take `CC(C)Oc1cccc2c1C(=NNc1ccc(S(N)(=O)=O)cc1)C(=O)N2`: the IC50 in data set [1] was 3.31 nM.
Take `CNS(=O)(=O)Cc1ccc(NC=C2C(=O)Nc3ccc4ncsc4c32)cc1`: in data set [1], the IC50 is 26.3 nM.
For the compound `NS(=O)(=O)c1ccc(NN=C2C(=O)Nc3ccc(C(=O)NCCn4ccnc4)cc32)cc1`, the IC50 in data set [1] was 25.1 nM.
Turning to `CC(C)(C)OC(=O)Nc1ccc(Nc2n[nH]c3ncnc(Nc4cccc(Cl)c4)c23)cc1`, the IC50 in data set [2] is 15000 nM.
In the case of `O=C1Nc2ccccc2C1=CNc1ccc(-c2cnco2)c2c1CS(=O)(=O)C2`, the IC50 in data set [1] is 8.91 nM.
On to `CCOC(=O)c1ccc(Nc2ncc3cc(-c4c(Cl)cccc4Cl)c(=O)n(C)c3n2)cc1`, for which the IC50 in data set [2] is 75000 nM.
`Cn1c(=O)c(-c2c(Cl)cccc2Cl)cc2cnc(NC3CCCCC3)nc21`: the IC50 in data set [2] was 75000 nM.

The IC50 is the concentration that inhibits the measured activity by half.
